Measured values published in PubChem BioAssay AID248 (DTP/NCI, 2004).
Where “and” joins values, the source holds several entries; their conditions need not be identical. Equal values may be shown once. Toxic doses and inconclusive results are not listed. No stated cut-off is given here; in the data, active means T/C of 150% or more; inactive means T/C below 125%.

Tested on: L1210 leukemia ip in BDF1 mice, survival T/C
Experiment: NCI In Vivo Anticancer Drug Screen. Data for tumor model L1210 Leukemia (intraperitoneal) in B6D2F1 (BDF1) mice
Conditions: endpoint: mean survival time, higher = longer survival
Outline: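 Tumor cells were implanted, animals were treated, and survival was followed. The result divides the treated measurement by the vehicle-control measurement.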

[1] = dose: 100.0 mg/kg/injection, schedule: Q01DX009 (ip), vehicle: saline with Tween-80
[2] = dose: 100.0 mg/kg/injection, schedule: Q01DX009 (ip), vehicle: saline
[3] = dose: 100.0 mg/kg/injection, schedule: Q04DX003 (ip), vehicle: saline with Tween-80
[4] = dose: 100.0 mg/kg/injection, schedule: Q04DX003 (ip), vehicle: saline
[5] = dose: 200.0 mg/kg/injection, schedule: Q01DX009 (ip), vehicle: saline with Tween-80
[6] = dose: 200.0 mg/kg/injection, schedule: Q01DX009 (ip), vehicle: saline
[7] = dose: 200.0 mg/kg/injection, schedule: Q04DX003 (ip), vehicle: saline with Tween-80
[8] = dose: 200.0 mg/kg/injection, schedule: Q04DX003 (ip), vehicle: saline
[9] = dose: 400.0 mg/kg/injection, schedule: Q01DX009 (ip), vehicle: saline
[10] = dose: 400.0 mg/kg/injection, schedule: Q04DX003 (ip), vehicle: saline
[11] = dose: 100.0 mg/kg/injection, schedule: Q01DX001 (ip), vehicle: other
[12] = dose: 200.0 mg/kg/injection, schedule: Q01DX001 (ip), vehicle: other
[13] = dose: 100.0 mg/kg/injection, schedule: Q04DX002 (ip), vehicle: saline with Tween-80
[14] = dose: 200.0 mg/kg/injection, schedule: Q04DX002 (ip), vehicle: saline with Tween-80
[15] = dose: 400.0 mg/kg/injection, schedule: Q04DX002 (ip), vehicle: saline with Tween-80

Measured: T/C

OCC12CCCCC1CC1(CC2)OCCO1 (centres undefined)
inactive: dose: 50.0 mg/kg/injection, schedule: Q01DX009 (ip), vehicle: saline with Tween-80 102 % of control | [1] 103 % of control | [2] 100 % of control | [3] 86 % of control | [4] 111 % of control | [5] 96 % of control | [6] 102 % of control | [7] 99 % of control | [8] 106 % of control | [9] 107 % of control | [10] 106 % of control

CCOC(=O)C1C2=C(C(N)=O)C(=O)C(C(=O)O2)C1c1ccc(O)cc1 (centres undefined)
inactive: [11] 91 % of control | [12] 97 % of control

O=S(=O)(Nc1cc2c(nc3ccccn32)c2ccccc12)c1ccccc1
inactive: dose: 50.0 mg/kg/injection, schedule: Q01DX001 (ip), vehicle: saline 103 % of control

O=C(CBr)c1cccc2c1cc(Br)c1ccccc12
inactive: dose: 13.3 mg/kg/injection, schedule: Q01DX Z (ip), vehicle: methylcellulose (MC) 94 % of control | dose: 20.0 mg/kg/injection, schedule: Q01DX Z (ip), vehicle: methylcellulose (MC) 93 % of control | dose: 30.0 mg/kg/injection, schedule: Q01DX Z (ip), vehicle: methylcellulose (MC) 100 % of control

N#C/C(=C1/C(=O)c2ccccc2-c2c1cccc2[N+](=O)[O-])c1ccccc1
inactive: dose: 75.0 mg/kg/injection, schedule: Q01DX001 (ip), vehicle: carboxymethylcellulose (CMC) 92 % of control | dose: 150.0 mg/kg/injection, schedule: Q01DX001 (ip), vehicle: carboxymethylcellulose (CMC) 94 % of control | dose: 300.0 mg/kg/injection, schedule: Q01DX001 (ip), vehicle: carboxymethylcellulose (CMC) 97 % of control

COC(=O)C(C(=O)OC)c1c(N)n(C)c(=O)n(C)c1=O
inactive: dose: 100.0 mg/kg/injection, schedule: Q01DX001 (ip), vehicle: Klucel (hydroxypropylcellulose) (HPC) 93 % of control | dose: 200.0 mg/kg/injection, schedule: Q01DX001 (ip), vehicle: Klucel (hydroxypropylcellulose) (HPC) 100 % of control | dose: 400.0 mg/kg/injection, schedule: Q01DX001 (ip), vehicle: Klucel (hydroxypropylcellulose) (HPC) 100 % of control

O=C1CCCCC1CCCBr (centres undefined)
inactive: dose: 100.0 mg/kg/injection, schedule: Q01DX001 (ip), vehicle: saline with Tween-80 102 % of control | dose: 200.0 mg/kg/injection, schedule: Q01DX001 (ip), vehicle: saline with Tween-80 98 % of control | dose: 400.0 mg/kg/injection, schedule: Q01DX001 (ip), vehicle: saline with Tween-80 95 % of control

Nc1ncn(C2CC(OC(=O)c3ccc(Cl)cc3)C(COC(=O)c3ccc(Cl)cc3)O2)c(=O)n1 (centres undefined)
inactive: dose: 100.0 mg/kg/injection, schedule: Q01DX005 (ip), vehicle: saline 110 % of control and 122 % of control | dose: 200.0 mg/kg/injection, schedule: Q01DX005 (ip), vehicle: saline 104 % of control

Cc1cc(C)c(-c2cc(C(O)C3OC4OC(C)(C)OC4C4OC(C)(C)OC34)on2)c(C)c1 (centres undefined)
inactive: [13] 97 % of control | [14] 87 % of control | [15] 87 % of control

O=S(=O)(NC1CCCCC1)c1ccccc1
inactive: dose: 75.0 mg/kg/injection, schedule: Q01DX009 (ip), vehicle: saline with Tween-80 94 % of control | dose: 150.0 mg/kg/injection, schedule: Q01DX009 (ip), vehicle: saline with Tween-80 95 % of control | dose: 300.0 mg/kg/injection, schedule: Q01DX009 (ip), vehicle: saline with Tween-80 97 % of control

Cc1cc(C)c(NS(=O)(=O)c2ccccc2)c([N+](=O)[O-])c1
inactive: [13] 101 % of control | [14] 104 % of control | [15] 104 % of control

COc1ccc2c(c1)CC[C@@H]1[C@@H]2CC[C@@]2(C)[C@H]1CC[C@@]2(O)C(F)=C(F)F
inactive: dose: 38.0 mg/kg/injection, schedule: Q01DX015 (sc), vehicle: steriod suspending solution 96 % of control | dose: 50.0 mg/kg/injection, schedule: Q01DX009 (ip), vehicle: Klucel (hydroxypropylcellulose) (HPC) 116 % of control | dose: 75.0 mg/kg/injection, schedule: Q01DX015 (sc), vehicle: steriod suspending solution 88 % of control | dose: 100.0 mg/kg/injection, schedule: Q01DX001 (sc), vehicle: steriod suspending solution 92 % of control | dose: 100.0 mg/kg/injection, schedule: Q01DX009 (ip), vehicle: Klucel (hydroxypropylcellulose) (HPC) 107 % of control | dose: 150.0 mg/kg/injection, schedule: Q01DX015 (sc), vehicle: steriod suspending solution 94 % of control | dose: 200.0 mg/kg/injection, schedule: Q01DX001 (sc), vehicle: steriod suspending solution 100 % of control | dose: 200.0 mg/kg/injection, schedule: Q01DX009 (ip), vehicle: Klucel (hydroxypropylcellulose) (HPC) 100 % of control | dose: 300.0 mg/kg/injection, schedule: Q01DX009 (ip), vehicle: Klucel (hydroxypropylcellulose) (HPC) 104 % of control | dose: 300.0 mg/kg/injection, schedule: Q01DX015 (sc), vehicle: steriod suspending solution 94 % of control | dose: 400.0 mg/kg/injection, schedule: Q01DX001 (sc), vehicle: steriod suspending solution 97 % of control | dose: 600.0 mg/kg/injection, schedule: Q01DX015 (sc), vehicle: steriod suspending solution 94 % of control

Cc1ccc(C(C)C)c(OCCNC2=NCCN2)c1
inactive: dose: 6.25 mg/kg/injection, schedule: Q01DX009 (ip), vehicle: saline 97 % of control | dose: 6.25 mg/kg/injection, schedule: Q04DX003 (ip), vehicle: saline 97 % of control | dose: 12.5 mg/kg/injection, schedule: Q01DX009 (ip), vehicle: saline 104 % of control | dose: 12.5 mg/kg/injection, schedule: Q04DX003 (ip), vehicle: saline 92 % of control | dose: 25.0 mg/kg/injection, schedule: Q01DX009 (ip), vehicle: saline 97 % of control | dose: 25.0 mg/kg/injection, schedule: Q04DX003 (ip), vehicle: saline 97 % of control

CCCCN1c2ccccc2NP1(=S)c1ccccc1 (centres undefined)
inactive: dose: 100.0 mg/kg/injection, schedule: Q04DX002 (ip), vehicle: DMSO 93 % of control | dose: 200.0 mg/kg/injection, schedule: Q04DX002 (ip), vehicle: DMSO 101 % of control

Cc1cc(Br)c[nH]c1=O
inactive: [3] 98 % of control | [7] 98 % of control | dose: 400.0 mg/kg/injection, schedule: Q04DX003 (ip), vehicle: saline with Tween-80 102 % of control

NC(N)=NCCCC(N)C(=O)NCCCCCCNCCCCCCNC(=O)C(N)CCCN=C(N)N (centres undefined)
inactive: dose: 1.25 mg/kg/injection, schedule: Q01DX Z (ip), vehicle: saline 96 % of control | dose: 2.5 mg/kg/injection, schedule: Q01DX Z (ip), vehicle: saline 94 % of control | dose: 5.0 mg/kg/injection, schedule: Q01DX Z (ip), vehicle: saline 98 % of control | dose: 10.0 mg/kg/injection, schedule: Q01DX Z (ip), vehicle: saline 96 % of control

CC(=O)CCCCC(=O)O
inactive: [2] 111 % of control | [4] 96 % of control | [6] 89 % of control | [8] 93 % of control | [9] 94 % of control | [10] 100 % of control

CCCCOCCOc1ccc(C(=O)O)cc1
inactive: [11] 106 % of control | [4] 87 % of control | [12] 94 % of control | [8] 94 % of control | dose: 400.0 mg/kg/injection, schedule: Q01DX001 (ip), vehicle: other 103 % of control | [10] 87 % of control

O=C(NNc1ccccc1)C(O)C(O)C(O)C(O)CO (centres undefined)
inactive: [1] 100 % of control | [5] 96 % of control | dose: 400.0 mg/kg/injection, schedule: Q01DX009 (ip), vehicle: saline with Tween-80 104 % of control
